According to ChEMBL document CHEMBL5678818, “Discovery of potent SOS1 inhibitors that block RAS activation via disruption of the RAS-SOS1 interaction” (Proc Natl Acad Sci U S A, 2019):

What was measured:
[1] = biological target: T1, Dual specificity mitogen-activated protein kinase kinase 6 (Homo sapiens) (UniProt P52564); assay: Inhibition of MEK6 (unknown origin) assessed as residual activity at 100 nM by KINOMEscan analysis relative to control
T1 sequence (whole entry): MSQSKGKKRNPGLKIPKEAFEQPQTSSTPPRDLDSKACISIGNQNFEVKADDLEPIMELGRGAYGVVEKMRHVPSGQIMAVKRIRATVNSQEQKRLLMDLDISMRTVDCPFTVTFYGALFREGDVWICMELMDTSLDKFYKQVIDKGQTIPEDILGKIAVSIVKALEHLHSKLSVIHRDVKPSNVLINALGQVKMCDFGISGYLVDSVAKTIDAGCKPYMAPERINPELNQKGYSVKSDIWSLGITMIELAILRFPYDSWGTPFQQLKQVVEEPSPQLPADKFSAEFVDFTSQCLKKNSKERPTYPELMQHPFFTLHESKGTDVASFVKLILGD

[2] = biological target: LIM domain kinase 1 (Homo sapiens) (UniProt P53667); assay: Inhibition of LIMK1 (unknown origin) assessed as residual activity at 100 nM by KINOMEscan analysis relative to control
Sequence of LIM domain kinase 1 (Homo sapiens) (P53667 whole entry, looked up, the tested form may be a part): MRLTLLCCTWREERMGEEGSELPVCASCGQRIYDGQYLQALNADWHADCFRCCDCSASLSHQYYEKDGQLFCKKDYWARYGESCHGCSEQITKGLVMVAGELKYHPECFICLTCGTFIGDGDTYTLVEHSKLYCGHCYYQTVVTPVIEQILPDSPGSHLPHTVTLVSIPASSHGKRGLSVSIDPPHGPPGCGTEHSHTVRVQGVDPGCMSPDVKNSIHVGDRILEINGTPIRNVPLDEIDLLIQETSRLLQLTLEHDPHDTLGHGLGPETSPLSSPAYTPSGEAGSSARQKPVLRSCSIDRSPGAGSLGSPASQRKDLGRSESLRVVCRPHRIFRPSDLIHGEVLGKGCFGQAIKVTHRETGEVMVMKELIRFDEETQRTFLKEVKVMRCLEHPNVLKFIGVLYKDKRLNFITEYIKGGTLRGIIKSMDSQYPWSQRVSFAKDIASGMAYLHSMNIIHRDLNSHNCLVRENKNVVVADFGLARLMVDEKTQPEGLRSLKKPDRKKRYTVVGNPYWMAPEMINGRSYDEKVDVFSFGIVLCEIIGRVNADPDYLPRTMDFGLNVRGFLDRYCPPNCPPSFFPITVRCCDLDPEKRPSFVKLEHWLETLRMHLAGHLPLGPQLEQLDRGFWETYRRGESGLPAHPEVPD

[3] = biological target: Serine/threonine-protein kinase 33 (Homo sapiens) (UniProt Q9BYT3); assay: Inhibition of STK33 (unknown origin) assessed as residual activity at 100 nM by KINOMEscan analysis relative to control
Sequence of Serine/threonine-protein kinase 33 (Homo sapiens) (Q9BYT3 whole entry, looked up): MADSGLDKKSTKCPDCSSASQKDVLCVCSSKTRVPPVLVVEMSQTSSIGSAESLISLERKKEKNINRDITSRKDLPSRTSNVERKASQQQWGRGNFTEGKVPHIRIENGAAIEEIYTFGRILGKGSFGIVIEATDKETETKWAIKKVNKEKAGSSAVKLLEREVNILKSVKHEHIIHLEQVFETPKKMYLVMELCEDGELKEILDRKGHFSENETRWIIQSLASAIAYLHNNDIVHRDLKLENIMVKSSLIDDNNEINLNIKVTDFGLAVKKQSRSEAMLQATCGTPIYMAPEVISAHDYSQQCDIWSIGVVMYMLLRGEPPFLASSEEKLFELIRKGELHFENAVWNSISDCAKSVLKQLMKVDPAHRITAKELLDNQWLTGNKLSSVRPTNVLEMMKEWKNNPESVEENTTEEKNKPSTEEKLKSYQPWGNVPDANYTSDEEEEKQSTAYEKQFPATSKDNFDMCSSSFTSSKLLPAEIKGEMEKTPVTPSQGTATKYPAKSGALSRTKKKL

[4] = biological target: T2, Serine/threonine-protein kinase Sgk1 (Homo sapiens) (UniProt O00141); assay: Inhibition of SGK (unknown origin) assessed as residual activity at 100 nM by KINOMEscan analysis relative to control
T2 sequence (whole entry): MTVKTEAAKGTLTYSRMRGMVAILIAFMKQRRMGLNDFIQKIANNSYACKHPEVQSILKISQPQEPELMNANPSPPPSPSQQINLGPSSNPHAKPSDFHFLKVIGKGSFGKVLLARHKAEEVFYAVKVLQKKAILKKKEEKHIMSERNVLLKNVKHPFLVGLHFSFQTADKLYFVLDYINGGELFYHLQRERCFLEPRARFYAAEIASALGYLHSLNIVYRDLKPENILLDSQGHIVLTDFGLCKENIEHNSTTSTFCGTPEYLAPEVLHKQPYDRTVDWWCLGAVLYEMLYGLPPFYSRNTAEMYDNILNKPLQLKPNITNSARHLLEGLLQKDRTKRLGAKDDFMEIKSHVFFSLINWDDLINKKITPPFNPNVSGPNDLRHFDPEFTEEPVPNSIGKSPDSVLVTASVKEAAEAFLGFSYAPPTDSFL

[5] = biological target: T3, Phosphatidylinositol 5-phosphate 4-kinase type-2 gamma (Homo sapiens) (UniProt Q8TBX8); assay: Inhibition of PIP5K2C (unknown origin) assessed as residual activity at 100 nM by KINOMEscan analysis relative to control
T3 sequence (whole entry): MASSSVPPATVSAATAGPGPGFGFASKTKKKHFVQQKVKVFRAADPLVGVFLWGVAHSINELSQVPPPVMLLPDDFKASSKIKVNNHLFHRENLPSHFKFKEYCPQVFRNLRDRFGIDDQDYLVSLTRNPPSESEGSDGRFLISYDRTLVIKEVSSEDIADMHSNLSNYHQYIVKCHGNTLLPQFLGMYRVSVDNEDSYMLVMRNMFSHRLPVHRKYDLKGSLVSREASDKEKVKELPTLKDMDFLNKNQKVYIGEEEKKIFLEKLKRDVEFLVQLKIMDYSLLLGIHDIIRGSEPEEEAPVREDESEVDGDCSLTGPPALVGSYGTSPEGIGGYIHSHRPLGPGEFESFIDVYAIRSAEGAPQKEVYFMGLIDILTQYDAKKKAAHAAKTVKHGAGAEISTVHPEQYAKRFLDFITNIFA

[6] = biological target: Platelet-derived growth factor receptor alpha (Homo sapiens) (UniProt P16234); assay: Inhibition of PDGFRA (unknown origin) assessed as residual activity at 100 nM by KINOMEscan analysis relative to control
Sequence of Platelet-derived growth factor receptor alpha (Homo sapiens) (P16234 whole entry): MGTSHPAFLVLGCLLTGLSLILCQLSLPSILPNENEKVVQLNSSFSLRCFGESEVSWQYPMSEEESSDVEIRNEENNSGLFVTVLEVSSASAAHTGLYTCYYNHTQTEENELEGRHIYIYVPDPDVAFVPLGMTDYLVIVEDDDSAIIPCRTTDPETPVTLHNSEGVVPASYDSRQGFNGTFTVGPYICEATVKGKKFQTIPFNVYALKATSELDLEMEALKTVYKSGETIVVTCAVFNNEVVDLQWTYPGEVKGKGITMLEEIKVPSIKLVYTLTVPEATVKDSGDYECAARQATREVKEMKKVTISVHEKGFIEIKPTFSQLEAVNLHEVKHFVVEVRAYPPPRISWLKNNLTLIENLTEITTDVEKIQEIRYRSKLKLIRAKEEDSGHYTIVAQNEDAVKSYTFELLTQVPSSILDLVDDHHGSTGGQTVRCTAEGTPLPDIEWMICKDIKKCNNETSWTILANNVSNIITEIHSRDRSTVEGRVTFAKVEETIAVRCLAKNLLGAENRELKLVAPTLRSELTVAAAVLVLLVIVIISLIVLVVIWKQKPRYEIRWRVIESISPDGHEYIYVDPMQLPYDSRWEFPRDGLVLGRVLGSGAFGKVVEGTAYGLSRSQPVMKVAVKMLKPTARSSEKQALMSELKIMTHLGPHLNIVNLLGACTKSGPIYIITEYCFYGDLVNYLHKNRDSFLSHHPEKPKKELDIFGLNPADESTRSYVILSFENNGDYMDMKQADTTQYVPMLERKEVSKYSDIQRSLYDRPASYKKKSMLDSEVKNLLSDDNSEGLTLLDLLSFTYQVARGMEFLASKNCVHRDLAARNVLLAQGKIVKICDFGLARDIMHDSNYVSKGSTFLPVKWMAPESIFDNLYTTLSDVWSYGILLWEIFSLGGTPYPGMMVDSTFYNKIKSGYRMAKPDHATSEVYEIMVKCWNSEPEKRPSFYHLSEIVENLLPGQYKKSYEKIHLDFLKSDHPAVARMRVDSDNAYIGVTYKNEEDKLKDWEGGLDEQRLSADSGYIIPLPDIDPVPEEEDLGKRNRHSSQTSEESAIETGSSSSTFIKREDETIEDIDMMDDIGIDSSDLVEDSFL

[7] = biological target: Death-associated protein kinase 3 (Homo sapiens) (UniProt O43293); assay: Inhibition of DAPK3 (unknown origin) assessed as residual activity at 100 nM by KINOMEscan analysis relative to control
Sequence of Death-associated protein kinase 3 (Homo sapiens) (O43293 whole entry, looked up): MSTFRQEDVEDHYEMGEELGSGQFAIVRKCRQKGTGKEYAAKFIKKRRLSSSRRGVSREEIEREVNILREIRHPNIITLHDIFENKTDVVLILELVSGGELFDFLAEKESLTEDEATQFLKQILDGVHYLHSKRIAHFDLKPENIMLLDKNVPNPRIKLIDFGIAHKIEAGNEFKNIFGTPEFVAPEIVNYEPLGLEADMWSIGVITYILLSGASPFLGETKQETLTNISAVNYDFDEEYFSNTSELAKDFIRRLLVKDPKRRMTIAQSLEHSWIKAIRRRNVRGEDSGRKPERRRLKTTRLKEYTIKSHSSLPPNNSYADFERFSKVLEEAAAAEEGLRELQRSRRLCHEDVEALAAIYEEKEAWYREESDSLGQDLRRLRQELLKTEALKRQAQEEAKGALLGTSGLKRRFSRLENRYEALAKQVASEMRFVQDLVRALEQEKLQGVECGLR

[8] = biological target: 5'-AMP-activated protein kinase catalytic subunit alpha-2 (Homo sapiens) (UniProt P54646); assay: Inhibition of AMPK-alpha2 (unknown origin) assessed as residual activity at 100 nM by KINOMEscan analysis relative to control
Sequence of 5'-AMP-activated protein kinase catalytic subunit alpha-2 (Homo sapiens) (P54646 whole entry, looked up): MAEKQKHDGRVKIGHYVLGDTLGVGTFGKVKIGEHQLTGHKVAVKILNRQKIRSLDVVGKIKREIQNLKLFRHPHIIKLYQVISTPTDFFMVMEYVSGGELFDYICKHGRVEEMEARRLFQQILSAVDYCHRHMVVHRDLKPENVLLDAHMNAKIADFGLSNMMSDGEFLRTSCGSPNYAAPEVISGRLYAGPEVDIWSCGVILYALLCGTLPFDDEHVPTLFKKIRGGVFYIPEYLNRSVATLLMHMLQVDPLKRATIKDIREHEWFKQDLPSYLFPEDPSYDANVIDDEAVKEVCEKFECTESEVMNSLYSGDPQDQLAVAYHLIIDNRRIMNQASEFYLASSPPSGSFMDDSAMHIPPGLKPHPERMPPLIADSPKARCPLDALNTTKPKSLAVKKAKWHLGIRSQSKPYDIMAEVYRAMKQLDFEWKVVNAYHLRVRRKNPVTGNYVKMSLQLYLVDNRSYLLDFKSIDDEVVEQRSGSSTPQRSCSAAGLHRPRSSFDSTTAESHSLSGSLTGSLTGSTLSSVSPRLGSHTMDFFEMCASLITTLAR

[9] = biological target: T4, Ephrin type-A receptor 8 (Homo sapiens) (UniProt P29322); assay: Inhibition of EPHA8 (unknown origin) assessed as residual activity at 100 nM by KINOMEscan analysis relative to control
T4 sequence (whole entry): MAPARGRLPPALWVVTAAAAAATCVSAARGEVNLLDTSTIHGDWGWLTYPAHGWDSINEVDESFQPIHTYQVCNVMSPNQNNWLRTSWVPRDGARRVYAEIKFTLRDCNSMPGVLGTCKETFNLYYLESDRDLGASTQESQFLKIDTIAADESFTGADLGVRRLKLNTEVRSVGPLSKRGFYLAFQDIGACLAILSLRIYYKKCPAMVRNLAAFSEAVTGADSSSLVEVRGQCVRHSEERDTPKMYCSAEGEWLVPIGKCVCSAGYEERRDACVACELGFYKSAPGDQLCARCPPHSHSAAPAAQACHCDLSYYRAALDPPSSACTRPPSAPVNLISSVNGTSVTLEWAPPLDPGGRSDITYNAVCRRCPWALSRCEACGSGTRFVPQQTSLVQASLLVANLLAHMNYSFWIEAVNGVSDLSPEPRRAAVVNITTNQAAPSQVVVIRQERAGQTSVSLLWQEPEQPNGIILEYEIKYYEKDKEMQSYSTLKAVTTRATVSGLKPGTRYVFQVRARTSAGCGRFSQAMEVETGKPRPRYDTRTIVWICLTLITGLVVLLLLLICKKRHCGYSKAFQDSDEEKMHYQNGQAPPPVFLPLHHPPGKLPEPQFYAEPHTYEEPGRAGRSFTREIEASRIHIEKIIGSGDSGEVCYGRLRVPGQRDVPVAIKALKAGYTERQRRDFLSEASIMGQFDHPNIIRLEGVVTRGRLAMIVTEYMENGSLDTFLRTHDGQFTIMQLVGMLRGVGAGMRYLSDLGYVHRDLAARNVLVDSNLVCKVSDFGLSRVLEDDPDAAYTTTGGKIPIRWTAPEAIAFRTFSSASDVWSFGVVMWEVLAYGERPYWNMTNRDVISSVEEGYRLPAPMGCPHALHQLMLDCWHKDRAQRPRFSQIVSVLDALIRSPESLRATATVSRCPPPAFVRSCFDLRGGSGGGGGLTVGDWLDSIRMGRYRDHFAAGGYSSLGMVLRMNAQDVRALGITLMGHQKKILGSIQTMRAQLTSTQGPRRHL

With `COc1cc2ncnc(N[C@H](C)c3cccc4ccccc34)c2cc1OC` the Activity [1] was 98%, the Activity [2] was 81% and the Activity [3] was 70%. The Activity [4] was 87%, the Activity [5] was 96% and the Activity [6] was 100%. It also gave an Activity [7] of 100%, an Activity [8] of 52% and an Activity [9] of 75%.
